Measured values as given in paper PMC12380353, “MK-8527 is a novel inhibitor of HIV-1 reverse transcriptase translocation with potential for extended-duration dosing” (PLOS Biology, 2025).
Where “and” joins values, the source holds several entries; their conditions need not be identical. Identical values can stand only once. Like-named read-outs stand apart in the source and are kept apart here.

Columns and labels:
HIV-2ROD = test: Cytoprotection assay in CEM-SS cells, HIV-2; assay type: cell-based; settings: Human immunodeficiency virus 2, 144 h, 6 days, read-out: Antiviral potency as IC50, HIV-2 – CEM-SS cells
Procedure: The antiviral activity of MK-8527 against HIV-1 and HIV-2 was determined in a cytoprotection assay in CEM-SS cells at ImQuest BioSciences (Fredrick, MD, USA). Briefly, CEM-SS cells (National Institute of Health AIDS Research and Reference Reagent Program) were passaged in RPMI 1640 supplemented with 10% heat-inactivated FBS, 2 mM L-glutamine, 100 U/mL penicillin and 100 µg/mL streptomycin prior to use in the antiviral assay. On the day preceding the assay, the cells were split 1:2 to ensure they were in an exponential growth phase at the time of infection. The cells were resuspended at 2.5 × 10^3 cells per well in cell culture medium and added to the drug-containing microtiter plates at 50 µL per well. MK-8527 was tested in triplicate for each experiment, with 12 test concentrations added at 100 µL per well.
Lymphocyte-tropic virus strains HIV-1IIIB or HIV-2ROD (NIH AIDS Research and Reference Reagent Program) were diluted into tissue culture medium such that the amount of virus added to each well in a volume of […] corresponded to the amount determined to yield 85% to 95% cell killing in the untreated virus control wells at 6–7 days. Virus was added immediately after cells were added to the 96-well microtiter plates.
The IC50 for MK-8527 antiviral activity was determined using 4-parameter curve fit calculations.

HIV-1 subtypes = settings: for Fold-Change in IC50 vs CNDO control virus: listed as MK-8527
Procedure: Compounds were evaluated for antiviral activity against a panel of clinical isolates representing multiple HIV-1 subtypes at Monogram Biosciences (South San Francisco, CA, USA). The isolates were selected based on an absence of resistance-associated mutations in RT and each was constructed as a pooled resistance test vector designed to preserve the quasispecies present in the initial clinical isolate.

[1] = molecular target: human DNA polymerases α and β and human mitochondrial DNA polymerase γ; test: Human DNA polymerase inhibition assays (summary for α, β, γ); assay type: biochemical; settings: read-out: IC50 values against human DNA polymerases tested
Procedure: The activities of human DNA polymerases α, β, and γ were measured in radiolabeled nucleotide incorporation assays. TP was prepared as a 10-point titration with 3-fold serial dilution in water. Reaction buffers for the DNA polymerase α and β assays both contained 20 mM Tris pH 7.5, 10 mM MgCl2, 50 μM EDTA, 200 μg/mL bovine serum albumin (BSA), 2 mM dithiothreitol (DTT), 1.6 μM each of dNTP (dATP, dCTP, dGTP, and dTTP), 20 μCi/mL [α33P]dATP, 0.1 mg/mL gapped activated fish sperm DNA template, test compound, and 0.005 U/μL DNA polymerase α or 0.0025 U/μL DNA polymerase β. The reaction buffer for DNA polymerase γ contained 20 mM Tris pH 8, 10 mM MgCl2, 50 mM KCl, 100 μg/mL BSA, 2 mM β-mercaptoethanol, 10 μM of each dNTP (dATP, dCTP, dGTP, and dTTP), 20 μCi/mL [α33P]dATP, 0.04 mg/mL gapped activated fish sperm DNA template, test compound, and 0.0003 μg/μL DNA polymerase γ. The 50-μL reactions were incubated at room temperature for 30 min (for β and γ) or 90 min (for α) before terminating with the addition of 50 μL 500 mM EDTA. The reaction mixtures were transferred to a Millipore DE81 filter plate (EMD Millipore; Hayward, CA), washed with 0.5 M sodium phosphate pH 7.0, and dried. After addition of 40 μL scintillant to each well, the incorporation of labeled dATP was determined with a microplate counter (TopCount NXT HTS; PerkinElmer, Shelton, CA, USA).

| Structure (SMILES) | IC50 (HIV-2ROD) [nM] | Geometric Mean fold-change (HIV-1 subtypes; WT Subtype A) | Geometric Mean fold-change (HIV-1 subtypes; WT Subtype A1) | Fold-Change in IC50 vs CNDO control virus (HIV-1 subtypes; WT Subtype A1 clinical isolates) | Geometric Mean fold-change (HIV-1 subtypes; WT Subtype AE) | Geometric Mean fold-change (HIV-1 subtypes; WT Subtype AG) | Geometric Mean fold-change (HIV-1 subtypes; WT Subtype B) | Geometric Mean fold-change (HIV-1 subtypes; WT Subtype BF) | Geometric Mean fold-change (HIV-1 subtypes; WT Subtype C) | Geometric Mean fold-change (HIV-1 subtypes; WT Subtype D) | Geometric Mean fold-change (HIV-1 subtypes; WT Subtype F1) | Geometric Mean fold-change (HIV-1 subtypes; WT Subtype G) | Geometric Mean fold-change (HIV-1 subtypes; WT Subtype H) | Fold-Change in IC50 vs CNDO control virus (HIV-1 subtypes; WT Subtype H clinical isolates) | IC50 [1] [nM] |
| --- | --- | --- | --- | --- | --- | --- | --- | --- | --- | --- | --- | --- | --- | --- | --- |
| C#C[C@]1(CO)O[C@@H](n2ccc3c(N)nc(Cl)nc32)C[C@@H]1O [Compound 12, (2R,3S,5R)-5-(4-amino-2-chloro-7H-pyrrolo[2,3-d]pyrimidin-7-yl)-2-ethynyl-2-(hydroxymethyl)tetrahydrofuran-3-ol] | 0.007 | 1.0 | 0.9 | 0.96 and 0.93 and 0.73 | 0.6 | 1.0 | 0.9 | 0.8 | 1.0 | 0.7 | 0.8 | 0.752 | 0.55 | 0.72 and 0.42 |  |
| C#C[C@]1(COP(=O)(O)OP(=O)(O)OP(=O)(O)O)O[C@@H](n2ccc3c(N)nc(Cl)nc32)C[C@@H]1O [MK-8527-TP] |  |  |  |  |  |  |  |  |  |  |  |  |  |  | ≥ 95000 |
